Assay results: EPA's ToxValDB 9.5

Experiments:
Rattus norvegicus [1] = system: Rattus norvegicus
Rattus norvegicus [2] = system: Rattus norvegicus; remark: listed apart in the source
[3] = reproduction developmental, duration: 90 days, oral, M/F, Sprague-Dawley, Body Weight: >11% reduced body weight
[4] = reproduction developmental, duration: 90 days, oral, M/F, Sprague-Dawley, Hepatic: Increased absolute and relative liver weight in P-generation (36%) and F1-generation (30%) males / hepatocellular hypertrophy and …
[5] = short-term, duration: 2 weeks, inhalation, M, CD, Body Weight: 7% lower body weight on exposure day 5
[6] = short-term, duration: 14 days, oral, M, Body Weight: 24% decrease in overall body weight gain
[7] = short-term, duration: 14 days, oral, M, CD, Body Weight: 14% lower final body weight
[8] = short-term, duration: 14 days, oral, M, CD, Body Weight: 14% reduction in final body weight
[9] = short-term, duration: 14 days, oral, M, CD, Reproductive: 2-fold increase in serum estradiol
[10] = short-term, duration: 14 days, oral, M, CD, Reproductive: 63% increase in serum estradiol
[11] = short-term, duration: 28 days, oral, M, CD, Body Weight: 10% decrease in final body weight
[12] = short-term, duration: 28 days, oral, M, CD, Hepatic: 34% decrease in serum triglyceride levels, minimal hepatocellular hypertrophy at ?[…] / minimal focal necrosis at 29 mg/kg/day
[13] = subchronic, duration: 90 days, oral, M, CD, Body Weight: 33% reduction in final mean body weight
[14] = acute, duration: 1 days, injection, intraperitoneal, M, Sprague-Dawley, anti-edema effect (reduction in paw edema)
[15] = chronic, duration: 2 years, oral, diet, F, Sprague-Dawley, blood: eosinophils (18 months)
[16] = short-term, duration: 14 days, oral, gavage, M, Crj:CD, red blood cell count
[17] = short-term, duration: 14 days, oral, gavage, M, Crj:CD, white blood cell count
[18] = subchronic, duration: 90 days, oral, diet, M, blood: leukocytes (3 months)
[19] = subchronic, duration: 90 days, oral, diet, M, blood: monocytes (1 month)

## O=C([O-])C(F)(F)C(F)(F)C(F)(F)C(F)(F)C(F)(F)C(F)(F)C(F)(F)F.[NH4+] [Ammonium perfluorooctanoate]
Rattus norvegicus [1]; developmental, duration: 90 days, oral, M/F, Sprague-Dawley, Developmental: Increased number of dead pups on PNDs 6-8
  LOAEL: 30 mg/kg-day
Rattus norvegicus [1]; developmental, duration: 90 days, oral, M/F, Sprague-Dawley, Developmental: Increased number of dead pups on PNDs 6-8 + Endocrine: Vacuolation of zona glomerulosa of adrenal gland
  NOAEL: 10 mg/kg-day
Rattus norvegicus [1]; reproduction developmental, duration: 10 days, oral, F, Sprague-Dawley, Body Weight: 33% reduced maternal body weight gain
  LOAEL: 100 mg/kg-day
Rattus norvegicus [1]; [3]
  LOAEL: 10 mg/kg-day
  NOAEL: 3 mg/kg-day
Rattus norvegicus [1]; reproduction developmental, duration: 90 days, oral, M/F, Sprague-Dawley, Endocrine: Vacuolation of zona glomerulosa of adrenal gland
  LOAEL: 30 mg/kg-day
Rattus norvegicus [1]; [4]
  LOAEL: 3 mg/kg-day
  NOAEL: 1 mg/kg-day
Rattus norvegicus [1]; reproduction developmental, duration: 90 days, oral, M/F, Sprague-Dawley, Reproductive: No alteration in reproductive performance in P0 or F1 generation
  NOAEL: 30 mg/kg-day
Rattus norvegicus [1]; short-term, duration: 2 weeks, dermal, M, CD
  NOAEL: 2000 mg/kg-day
Rattus norvegicus [1]; short-term, duration: 2 weeks, dermal, M, CD, Body Weight: 14% weight loss
  LOAEL: 200 mg/kg-day
Rattus norvegicus [1]; short-term, duration: 2 weeks, dermal, M, CD, Body Weight: 14% weight loss + Dermal: Skin irritation / acute necrotizing dermatitis
  NOAEL: 20 mg/kg-day
Rattus norvegicus [1]; short-term, duration: 2 weeks, dermal, M, CD, Hepatic: Foci of coagulative necrosis
  LOAEL: 20 mg/kg-day
Rattus norvegicus [1]; [5]
  LOAEL: 84 mg/m3
  NOAEL: 7.6 mg/m3
Rattus norvegicus [1]; short-term, duration: 2 weeks, inhalation, M, CD, Hepatic: Increased absolute and relative liver weight / hepatocellular hypertrophy at 7.6 mg/m3 + Neurological: No histological alterations…
  NOAEL: 84 mg/m3
Rattus norvegicus [1]; short-term, duration: 7 days, oral, M, Sprague-Dawley, Body Weight: 17% weight loss
  LOAEL: 50 mg/kg-day
Rattus norvegicus [1]; short-term, duration: 7 days, oral, M, Sprague-Dawley, Hepatic: 2-fold increase in relative and absolute liver weight
  NOAEL: 50 mg/kg-day
Rattus norvegicus [1]; short-term, duration: 7 days, oral, M, Sprague-Dawley, Hepatic: Increased liver weight, decreased serum cholesterol, triglyceride, hepatocellular hypertrophy at ?18 mg/kg/day
  NOAEL: 23 mg/kg-day
Rattus norvegicus [1]; short-term, duration: 7 days, oral, M, Wistar, Hepatic: 66% increase in absolute liver weight
  NOAEL: 16 mg/kg-day
Rattus norvegicus [1]; [6]
  LOAEL: 3 mg/kg-day
  NOAEL: 1 mg/kg-day
Rattus norvegicus [1]; [7]
  LOAEL: 20 mg/kg-day
  NOAEL: 2 mg/kg-day
Rattus norvegicus [1]; [8]
  LOAEL: 25 mg/kg-day
  NOAEL: 10 mg/kg-day
Rattus norvegicus [1]; short-term, duration: 14 days, oral, M, CD, Hepatic: 34% increase in absolute and relative liver we
  NOAEL: 40 mg/kg-day
Rattus norvegicus [1]; short-term, duration: 14 days, oral, M, CD, Hepatic: 46% increase in relative liver weight at ?10 mg/kg/day
  NOAEL: 50 mg/kg-day
Rattus norvegicus [1]; [9]
  LOAEL: 2 mg/kg-day
  NOAEL: 0.2 mg/kg-day
Rattus norvegicus [1]; [10]
  LOAEL: 10 mg/kg-day
  NOAEL: 1 mg/kg-day
Rattus norvegicus [1]; short-term, duration: 14 days, oral, M, CD, Reproductive: 184% increase in serum estradiol
  LOAEL: 25 mg/kg-day
Rattus norvegicus [1]; short-term, duration: 14 days, oral, M, Hepatic: Decreased serum cholesterol levels at ?0.3 mg/kg/day
  NOAEL: 30 mg/kg-day
Rattus norvegicus [1]; short-term, duration: 14 days, oral, M, Sprague-Dawley, Hepatic: 2-fold increased mean relative liver weight at 50 mg/kg/day + Immunotoxicological: No alterations in spleen weight or splenocyte …
  NOAEL: 50 mg/kg-day
Rattus norvegicus [1]; short-term, duration: 28 days, oral, F, albino, Death: before end of 1st week of study
  LOAEL: 1130 mg/kg-day
Rattus norvegicus [1]; short-term, duration: 28 days, oral, M, CD
  NOAEL: 29 mg/kg-day
Rattus norvegicus [1]; short-term, duration: 28 days, oral, M, CD, Body Weight: 30 mg/kg/day: 11% reduction in final body weight / 100 mg/kg/day: 33% reduction in final body weight
  NOAEL: 10 mg/kg-day
Rattus norvegicus [1]; [11]
  LOAEL: 9.6 mg/kg-day
  NOAEL: 0.96 mg/kg-day
Rattus norvegicus [1]; [12]
  LOAEL: 29 mg/kg-day
  NOAEL: 0.29 mg/kg-day
Rattus norvegicus [1]; short-term, duration: 28 days, oral, M, CD, Hepatic: Hepatocyte hypertrophy
  NOAEL: 3 mg/kg-day
Rattus norvegicus [1]; short-term, duration: 28 days, oral, M, Sprague-Dawley, Hepatic: Increased liver weight (43% on day 29), decreased serum cholesterol (39% on day 29) and triglyceride (73% on day 29), …
  LOAEL: 18 mg/kg-day
Rattus norvegicus [1]; short-term, duration: 28 days, oral, M, albino, Death: 5/5 males and 5/5 females died
  LOAEL: 1000 mg/kg-day
Rattus norvegicus [1]; subchronic, duration: 13 weeks, oral, M, CD, Hepatic: Minimal to moderate hepatocellular hypertrophy at ?0.64 mg/kg/day + Neurological: No histological alterations + Reproductive: No …
  NOAEL: 6.5 mg/kg-day
Rattus norvegicus [1]; subchronic, duration: 90 days, oral, F, CD
  NOAEL: 100 mg/kg-day
Rattus norvegicus [1]; subchronic, duration: 90 days, oral, F, CD, Neurological: No histological alterations
  NOAEL: 110 mg/kg-day
Rattus norvegicus [1]; [13]
  LOAEL: 100 mg/kg-day
  NOAEL: 30 mg/kg-day
Rattus norvegicus [1]; subchronic, duration: 90 days, oral, M, CD, Hepatic: Hepatocyte hypertrophy / 50% increase in absolute liver weight + Reproductive: No histological alterations
  NOAEL: 100 mg/kg-day
Rattus norvegicus [2]; [14]
  LOEL: 50 mg/kg-day
  NOEL: 25 mg/kg-day
Rattus norvegicus [2]; acute, duration: 1 days, injection, intraperitoneal, M, Sprague-Dawley, paw thickness (0.5 hr) + paw thickness (1 hr) + paw thickness (time 0)
  NOEL: 150 mg/kg-day
Rattus norvegicus [2]; acute, duration: 1 days, injection, intraperitoneal, M, Sprague-Dawley, paw thickness (3 hrs, […] after PFOA) + paw thickness (4 hrs, 2.5 hrs after PFOA)
  LOEL: 150 mg/kg-day
Rattus norvegicus [2]; acute, duration: 1 days, injection, intraperitoneal, M, Sprague-Dawley, paw thickness ([…]) + paw thickness (2 hr) + paw thickness (3 hr) + paw thickness (4 hr)
  LOEL: 150 mg/kg-day
Rattus norvegicus [2]; acute, duration: 1 days, injection, intraperitoneal, M, Sprague-Dawley, paw thickness ([…], time of PFOA injection) + paw thickness (2 hrs, 0.5 hrs after PFOA)
  NOEL: 150 mg/kg-day
Rattus norvegicus [2]; acute, duration: 1 days, injection, intraperitoneal, M, Sprague-Dawley, paw thickness (edema): 0 hr, after carrageenan + paw thickness (edema): 0 hr, before carrageenan + paw thickness (edema): 0.5 hr + paw …
  NOEL: 100 mg/kg-day
Rattus norvegicus [2]; acute, duration: 1 days, injection, intraperitoneal, M, Sprague-Dawley, paw thickness (edema): […] + paw thickness (edema): 2 hr + paw thickness (edema): 2.5 hr + paw thickness (edema): 3 hr + paw thickness (…
  LOEL: 100 mg/kg-day
Rattus norvegicus [2]; acute, duration: 24 hours, injection, intraperitoneal, M, Fischer 344, blood serum: TNF-alpha levels
  NOEL: 150 mg/kg-day
Rattus norvegicus [2]; chronic, duration: 2 years, oral, diet, F, Sprague-Dawley, blood: eosinophils (12 months) + blood: eosinophils (24 months) + blood: eosinophils (3 months) + blood: eosinophils (6 months) + blood: …
  NOEL: 23.4 mg/kg-day
Rattus norvegicus [2]; [15]
  LOEL: 23.4 mg/kg-day
  NOEL: 2.34 mg/kg-day
Rattus norvegicus [2]; chronic, duration: 2 years, oral, diet, F, Sprague-Dawley, blood: lymphocytes (18 months) + blood: neutrophils (18 months) + spleen: spleen: absolute weight (2 years) + spleen: spleen: relative …
  LOEL: 2.34 mg/kg-day
Rattus norvegicus [2]; chronic, duration: 2 years, oral, diet, M, Sprague-Dawley, blood: eosinophils (12 months) + blood: eosinophils (18 months) + blood: eosinophils (24 months) + blood: eosinophils (3 months) + blood: …
  NOEL: 23.4 mg/kg-day
Rattus norvegicus [2]; chronic, duration: 2 years, oral, diet, M, Sprague-Dawley, blood: leukocyte count (12 months) + blood: leukocyte count (3 months) + blood: leukocyte count (6 months) + blood: lymphocytes (18 months…
  LOEL: 2.34 mg/kg-day
Rattus norvegicus [2]; short-term, duration: 14 days, oral, gavage, M, Crj:CD, blood: NKR-P1A+ + CD3+ + CD4+ + CD45RA+ + CD8a+ + lymphocyte + monocyte + NKR-P1A+ + spleen: spleen: absolute weight + spleen: spleen: …
  NOEL: 50 mg/kg-day
Rattus norvegicus [2]; [16]
  LOEL: 50 mg/kg-day
  NOEL: 5 mg/kg-day
Rattus norvegicus [2]; [17]
  LOEL: 5 mg/kg-day
  NOEL: 0.5 mg/kg-day
Rattus norvegicus [2]; short-term, duration: 24 days, oral, gavage, M, Crl:CD(SD) BR, IgM antibody titer (SRBC) + mean serum corticosterone + spleen: incidence of spleen hematopoiesis + spleen: spleen: absolute weight + spleen…
  NOEL: 30 mg/kg-day
Rattus norvegicus [2]; short-term, duration: 24 days, oral, gavage, M, Crl:CD(SD) BR, thymus: thymus: relative weight
  LOEL: 30 mg/kg-day
Rattus norvegicus [2]; short-term, duration: 28 days, oral, gavage, F, Sprague-Dawley, basophils + eosinophils + lymphocytes + monocytes + neutrophils + spleen: spleen: absolute weight + spleen: spleen: relative weight + thymus…
  NOEL: 30 mg/kg-day
Rattus norvegicus [2]; short-term, duration: 28 days, oral, gavage, F, Sprague-Dawley, basophils + eosinophils + lymphocytes + monocytes + spleen: spleen: absolute weight + spleen: spleen: relative weight + thymus: thymus: …
  NOEL: 30 mg/kg-day
Rattus norvegicus [2]; short-term, duration: 28 days, oral, gavage, F, Sprague-Dawley, neutrophils
  LOEL: 30 mg/kg-day
Rattus norvegicus [2]; short-term, duration: 28 days, oral, gavage, M, Sprague-Dawley, basophils + eosinophils + lymphocytes + monocytes + neutrophils + spleen: spleen: absolute weight + spleen: spleen: relative weight + thymus…
  NOEL: 30 mg/kg-day
Rattus norvegicus [2]; short-term, duration: 28 days, oral, gavage, M, Sprague-Dawley, basophils + eosinophils + lymphocytes + neutrophils + spleen: spleen: absolute weight + spleen: spleen: relative weight + thymus: thymus: …
  NOEL: 30 mg/kg-day
Rattus norvegicus [2]; short-term, duration: 28 days, oral, gavage, M, Sprague-Dawley, monocytes + thymus: thymus: absolute weight
  LOEL: 30 mg/kg-day
Rattus norvegicus [2]; short-term, duration: 29 days, oral, gavage, M, Crl:CD(SD) BR, IgM antibody titer (SRBC) + mean serum corticosterone + spleen: incidence of spleen hematopoiesis + spleen: spleen: relative weight + spleen…
  NOEL: 30 mg/kg-day
Rattus norvegicus [2]; subchronic, duration: 90 days, oral, diet, F, blood: basophils (1 month) + blood: basophils (3 months) + blood: eosinophils (1 month) + blood: eosinophils (3 months) + blood: leukocytes…
  NOEL: 96 mg/kg-day
Rattus norvegicus [2]; subchronic, duration: 90 days, oral, diet, M, blood: basophils (1 month) + blood: basophils (3 months) + blood: eosinophils (1 month) + blood: eosinophils (3 months) + blood: leukocytes…
  NOEL: 96 mg/kg-day
Rattus norvegicus [2]; [18]
  LOEL: 28.8 mg/kg-day
  NOEL: 9.6 mg/kg-day
Rattus norvegicus [2]; [19]
  LOEL: 2.88 mg/kg-day
  NOEL: 0.96 mg/kg-day
